Results reported in patent publication US10051861B2, “N-arylamidine-substituted trifluoroethyl sulfide derivatives as acaricides and insecticides” (BAYER CROPSCIENCE AG, priority 2011, dated 2018).

test system: greenhouse red spider mite (Tetranychus urticae); test: Tetranychus urticae spray test, OP-resistant (TETRUR), bean leaf disks; assay type: in vivo; details: Tetranychus urticae, foliar, 144 h, application rate 100 g/ha, after 6 days; read-out: efficacy (spider mites killed)
Description: After 6 days, the effect in % is determined.

Structure (SMILES) | pest or weed control at 100 g/ha [%]
Cc1cc(F)c(/N=C(\N)c2cccs2)cc1SCC(F)(F)F [Ia-181] | 90

same assay, conditions: Tetranychus urticae, foliar, 144 h, application rate 500 g/ha, after 6 days; read-out: efficacy (spider mites killed)

Structure (SMILES) | pest or weed control at 500 g/ha [%]
Cc1cc(Cl)c(/N=C(/c2ccc(Cl)cc2)N(C)C)cc1SCC(F)(F)F [Ia-71] | 100
CN/C(=N\c1cc(SCC(F)(F)F)c(C)cc1F)c1ccccn1 [Ia-72] | 100
Cc1cc(F)c(/N=C(\N)c2ccncc2)cc1SCC(F)(F)F [Ia-73] | 100
Cc1cc(Cl)c(SCC(F)(F)F)cc1/N=C(\N)C1(Cl)CC1 [Ia-74] | 100
Cc1cc(F)c(/N=C(\N)C2CC2(Cl)Cl)cc1SCC(F)(F)F (stereo not shown) [Ia-75] | 100
Cc1cc(Cl)c(SCC(F)(F)F)cc1/N=C(\N)C(F)(F)F [Ia-76] | 100
CN(C)/C(=N/c1ccc(Cl)c(SCC(F)(F)F)c1)C(F)(F)F [Ia-77] | 100
Cc1cc(C)c(SCC(F)(F)F)cc1/N=C(\N)c1ccc(Cl)nc1 [Ia-81] | 100
COC/C(N)=N/c1cc(SCC(F)(F)F)c(C)cc1F [Ia-82] | 100
N/C(=N\c1cccc(SCC(F)(F)F)c1)c1ccccn1 [Ia-83] | 100
Cc1cc(F)c(/N=C(/c2ccccc2Cl)N(C)C)cc1SCC(F)(F)F [Ia-84] | 100
Cc1cc(F)c(/N=C(/NC2(C)CC2)C(F)(F)F)cc1SCC(F)(F)F [Ia-85] | 100
Cc1cc(F)c(/N=C(\N)c2ccc(C(F)(F)F)nc2)cc1SCC(F)(F)F [Ia-86] | 100
CN/C(=N\c1cc(SCC(F)(F)F)c(Cl)cc1C)C(F)(F)F [Ia-87] | 100
Cc1cc(F)c(/N=C2\CCCCN2C)cc1SCC(F)(F)F [Ia-90] | 80
CN/C(=N\c1cc(SCC(F)(F)F)c(C)cc1C)c1cccnc1 [Ia-91] | 90
Cc1cc(F)c(/N=C(/C2CC2)N(C)C)cc1SCC(F)(F)F [Ia-93] | 100
Cc1cc(F)c(/N=C(\N)C2CCC2)cc1SCC(F)(F)F [Ia-94] | 100
Cc1cc(C)c(SCC(F)(F)F)cc1/N=C(\N)c1ccncc1 [Ia-95] | 100
CN/C(=N/c1cc(SCC(F)(F)F)c(F)cc1Cl)C(F)(F)F [Ia-97] | 100
Cc1cc(C)c(SCC(F)(F)F)cc1/N=C(\N)c1ccccn1 [Ia-98] | 100
Cc1cc(F)c(/N=C(\N)C2CCCO2)cc1SCC(F)(F)F (stereo not shown) [Ia-99] | 100

Structure (SMILES) | pest or weed control at 500 g/ha [%]
N/C(=N\c1cccc(SCC(F)(F)F)c1)C1(Cl)CC1 [Ia-100] | 100
N/C(=N\c1cccc(SCC(F)(F)F)c1)c1ccncc1 [Ia-101] | 90
Cc1cc(Cl)c(SCC(F)(F)F)cc1/N=C(\N)C1CC1 [Ia-102] | 90
N/C(=N\c1cccc(SCC(F)(F)F)c1)c1cccnc1 [Ia-104] | 90
Cc1cc(C)c(SCC(F)(F)F)cc1/N=C1\CCCN1C [Ia-105] | 90
Cc1cc(F)c(/N=C(\N(C)C)C2(C(C)C)CC2(Cl)Cl)cc1SCC(F)(F)F (stereo not shown) [Ia-106] | 90
N/C(=N\c1cccc(SCC(F)(F)F)c1)c1ccc(Cl)nc1 [Ia-107] | 90
Cc1cc(F)c(/N=C(\NC2CC2)C2CC2)cc1SCC(F)(F)F [Ia-108] | 80
CN(C)/C(=N/c1cc(SCC(F)(F)F)c(F)cc1Cl)C(F)(F)F [Ia-109] | 80
Cc1cc(C)c(SCC(F)(F)F)cc1/N=C(\N)C(F)(F)Cl [Ia-122] | 100
N/C(=N\c1cc(SCC(F)(F)F)c(Cl)cc1Cl)C1(Cl)CC1 [Ia-123] | 100
N/C(=N/c1cc(SCC(F)(F)F)c(Cl)cc1Br)C(F)(F)F [Ia-124] | 100
N/C(=N\c1cc(SCC(F)(F)F)c(Cl)cc1Cl)C(F)F [Ia-125] | 100
CN/C(=N/c1cc(SCC(F)(F)F)c(C)cc1F)c1cccc(F)c1 [Ia-126] | 100
Cc1cc(C)c(SCC(F)(F)F)cc1/N=C(\N)C(F)(F)C(F)(F)F [Ia-127] | 100
Cc1cc(F)c(/N=C(\c2ccc(F)cc2)N(C)C)cc1SCC(F)(F)F [Ia-128] | 90
Cc1cc(F)c(/N=C(\c2ccc(C#N)cc2)N(C)C)cc1SCC(F)(F)F [Ia-131] | 100
Cc1cc(F)c(N=C(N)CC#N)cc1SCC(F)(F)F [Ia-132] | 100
Cc1cc(F)c(N=C(N)c2ccccc2F)cc1SCC(F)(F)F [Ia-133] | 100
CN/C(=N\c1cc(SCC(F)(F)F)c(Cl)cc1Cl)c1cccnc1 [Ia-136] | 100
Cc1cc(F)c(/N=c2\sc(C)c(C)n2CC(F)(F)F)cc1SCC(F)(F)F [Ia-138] | 100
N/C(=N\c1cc(SCC(F)(F)F)c(Cl)cc1Cl)C1CC1(Cl)Cl (stereo not shown) [Ia-140] | 100

Structure (SMILES) | pest or weed control at 500 g/ha [%]
N/C(=N\c1cc(SCC(F)(F)F)c(Cl)cc1Cl)c1cccnc1 [Ia-141] | 100
CN/C(=N/c1cc(SCC(F)(F)F)c(C)cc1F)c1ccc(F)cc1 [Ia-144] | 100
Cc1cc(F)c(/N=C(\c2ccccc2F)N(C)C)cc1SCC(F)(F)F [Ia-147] | 100
CN/C(=N\c1cc(SCC(F)(F)F)c(C)cc1F)c1cnc(Cl)c(Cl)c1 [Ia-148] | 100
C=CCN/C(=N\c1cc(SCC(F)(F)F)c(C)cc1F)c1ccc(Cl)nc1 [Ia-150] | 100
CCN/C(=N\c1cc(SCC(F)(F)F)c(C)cc1F)c1cccnc1 [Ia-151] | 100
CN/C(=N\c1cc(SCC(F)(F)F)c(Cl)cc1Cl)c1ccc(Cl)nc1 [Ia-152] | 100
FC(F)(F)CN/C(=N\c1cc(SCC(F)(F)F)c(Cl)cc1Cl)C1CC1 [Ia-153] | 100
NN/C(=N/c1cc(SCC(F)(F)F)c(Cl)cc1F)C(F)(F)F [Ia-155] | 90
N/C(=N\c1cc(SCC(F)(F)F)c(Cl)cc1Cl)C1CCCCC1 [Ia-156] | 100
Cc1cc(F)c(/N=C(\NC2CC2)c2ccc(Cl)nc2)cc1SCC(F)(F)F [Ia-158] | 100
CN/C(=N/c1cc(SCC(F)(F)F)c(C)cc1F)c1ccc(C(F)(F)F)nc1 [Ia-159] | 90
Cc1cc(F)c(/N=C(\c2ccc(C(F)(F)F)nc2)N(C)C)cc1SCC(F)(F)F [Ia-160] | 90
Cc1cc(F)c(/N=C(\N)C2CCCC2)cc1SCC(F)(F)F [Ia-161] | 100
CN/C(=N\c1cc(SCC(F)(F)F)c(C)cc1F)C1CC1 [Ia-163] | 100
Cc1cc(C)c(SCC(F)(F)F)cc1/N=C(/c1cccnc1)N(C)C [Ia-167] | 90
CN/C(=N/c1cc(SCC(F)(F)F)c(C)cc1F)c1ccc(Cl)nc1 [Ia-168] | 90
Cc1cc(F)c(/N=C(\N)C2CCCCC2)cc1SCC(F)(F)F [Ia-169] | 90
N/C(=N\c1cc(SCC(F)(F)F)c(Cl)cc1Cl)c1ccncc1 [Ia-172] | 90
N#CC/C(N)=N/c1cc(SCC(F)(F)F)c(Cl)cc1Cl [Ia-173] | 90
CN/C(=N\c1cc(SCC(F)(F)F)c(C)cc1C)c1ccc(Cl)cc1 [Ia-176] | 90
CN/C(=N\c1cc(SCC(F)(F)F)c(Cl)cc1Cl)c1cccc(Cl)c1 [Ia-177] | 90

Structure (SMILES) | pest or weed control at 500 g/ha [%]
C/C=C/C=C/C(=N/c1cc(SCC(F)(F)F)c(C)cc1F)NC(C)CC (stereo not shown) [Ia-178] | 90
Cc1cc(F)c(/N=C(/N2CCCC2)C(F)(F)F)cc1SCC(F)(F)F [Ia-180] | 90
Cc1cc(C)c(SCC(F)(F)F)cc1/N=C1\SCC(=O)N1C1CC1 [Ia-187] | 100
Cc1cc(F)c(/N=C2\SCC(=O)N2CC(F)F)cc1SCC(F)(F)F [Ia-188] | 100
Cc1cc(C)c(SCC(F)(F)F)cc1/N=C(\N)c1cnccn1 [Ia-190] | 90
O=C1CS/C(=N\c2cc(SCC(F)(F)F)c(Cl)cc2F)N1CC(F)(F)F [Ia-192] | 90
Cc1cc(F)c(/N=C(/c2ccccc2)N(C)C)cc1SCC(F)(F)F [Ia-193] | 100
O=C1CS/C(=N\c2ccc(Cl)c(SCC(F)(F)F)c2)N1CC(F)(F)F [Ia-194] | 100
Cc1ccc(/N=C2\SCC(=O)N2CC(F)(F)F)cc1SCC(F)(F)F [Ia-195] | 100
O=C1CS/C(=N\c2cc(SCC(F)(F)F)c(Cl)cc2Cl)N1C1CC1 [Ia-196] | 90
Cc1cc(F)c(/N=C2\SCC(=O)N2C2CC2)cc1SCC(F)(F)F [Ia-197] | 100
Cc1cc(F)c(/N=C2\CCCN2C(C)C(F)(F)F)cc1SCC(F)(F)F (stereo not shown) [Ia-201] | 100
CN/C(=N/c1cc(SCC(F)(F)F)c(C)cc1F)c1cccc(C(F)(F)F)c1 [Ia-203] | 100
CN(C)/C(=N\c1cc(SCC(F)(F)F)c(Cl)cc1Cl)c1ccccc1 [Ia-205] | 100
N/C(=N\c1cc(SCC(F)(F)F)c(Cl)cc1Cl)c1cnccn1 [Ia-208] | 100
CN(C)/C(=N\c1cc(SCC(F)(F)F)c(Cl)cc1Cl)c1ccc(Cl)cc1 [Ia-211] | 100
Cc1cc(F)c(/N=C(\c2cccc(C(F)(F)F)c2)N(C)C)cc1SCC(F)(F)F [Ia-212] | 90
Cc1ccc(/N=C(/N)C(F)(F)F)cc1SCC(F)(F)F [Ia-213] | 100
CN/C(=N\c1cc(SCC(F)(F)F)c(C)cc1C)c1ccccn1 [Ia-214] | 100
Cc1cc(F)c(/N=C(/N)c2ccc(Cl)cc2)cc1SCC(F)(F)F [Ia-215] | 90
Cc1cc(F)c(/N=C(/CC(F)(F)F)N(C)C)cc1SCC(F)(F)F [Ia-216] | 90
